Results taken from patent US20250388575A1, “HETEROBIFUNCTIONAL COMPOUNDS AND METHODS OF TREATING DISEASE” (Halda Therapeutics OpCo, Inc., priority 2022, published 2025).
Like-named read-outs stand apart in the source and are kept apart here.

Tests used:
[1] = system: T-Rex 293 cell line SC3 cells having increased expression of androgen receptor protein; assay: Cellular growth inhibition, T-Rex 293 SC3 cells with increased androgen receptor expression (doxycycline), CellTiter-Glo; type: cell-based; settings: T-Rex 293 SC3 cells with increased androgen receptor expression (exposed to 10 ng/mL doxycycline), 72 hours, CellTiter-Glo; read-out: GI50
Procedure: (§1) The following types of cells were prepared for this experiment: (i) a T-Rex 293 cell line having increased expression of androgen receptor protein due to exposure to doxycycline and (ii) a T-Rex 293 cell line lacking increased expression of androgen receptor protein. Ability of the test compounds to inhibit proliferation of the foregoing cell types was evaluated according to the procedures set forth below.
(§2) The doxycycline-inducible androgen receptor protein expressing cell line was established using the following protocol: T-Rex 293 cells were purchased from Invitrogen (Cat #R71007) and transfected using Lipofectamine 2000 with the wild-type androgen receptor protein sequence cloned into the pcDNA4/TO vector. Transfected cells were selected using 400 μg/mL Zeocin (Invitrogen Cat #R25001). Following selection, single clones were raised and maintained in Dulbecco's Modified Eagle Medium (DMEM) supplemented with 10% w/w Tetracycline-free fetal bovine serum (FBS) and 250 μg/mL Zeocin. Clones were analyzed for expression of androgen receptor protein in the presence and absence of 10 ng/ml doxycycline (Sigma Cat #D9891), and a single doxycycline-inducible clone (hereinafter “SC3”) was selected for use in downstream assays.
(§3) The SC3 cells were seeded on poly-D-lysine coated, black clear-bottom 384-well plates at 2500/well, in 25 μL Phenol Red Free Dulbecco's Modified Eagle Medium (DMEM) supplemented with 10% w/w charcoal-dextran treated fetal bovine serum (FBS) and 1% w/w pen-strep, with or without 10 ng/mL doxycycline. Pen-Strep is a commercially available mixture of penicillin G and streptomycin, which is used in mammalian cell culture media to prevent bacterial contamination. Phenol Red Free Dulbecco's Modified Eagle Medium (DMEM) supplemented with 10% w/w charcoal-dextran treated fetal bovine serum (FBS) and 1% w/w pen-strep, with or without 10 ng/mL doxycycline is herein referred to as Treatment Medium. Following seeding of cells in the plates, the plates were spun at 300×g for 30 seconds, then equilibrated to room temperature for 30 minutes, and then deposited in a humidified tissue culture incubator maintained at 37° C. with 5% CO2.
(§4) At 24 hours after seeding of the cells, dilutions of test compound were prepared in DMSO and dissolved in Treatment Medium, to achieve a final DMSO concentration of 0.5% w/w, thereby providing the Test Compound Solution. A 25 μL aliquot of the Test Compound Solution was added to cells in the well plates. An equal volume of a solution containing DMSO and Treatment Medium was used as a negative control. Following treatment of cells with Test Compound Solution or said equal volume of a solution containing DMSO and Treatment Medium, the plates were spun at 300×g for 30 seconds, and then left in an incubator for 72 hours.
(§5) At the end of the treatment duration, cell viability was quantified with CellTiter-Glo 2.0 reagent (Promega Cat #G9243). For this purpose, plates were equilibrated to room temperature for 30 minutes, and then 25 μL of CellTiter-Glo 2.0 reagent was added to cells in the plate wells. Plates were then agitated on a shaker for two minutes at 500 rpm and subsequently incubated at room temperature for 10 minutes. Following incubation, the plates were spun at 3000×g for 30 seconds, then sealed with an optical adhesive cover, and luminescence readings were measured with an EnVision Plate Reader.
(§6) Data was normalized using zero luminescence for baseline. A four-parameter non-linear regression curve fit was applied to dose-response data in GraphPad Prism data analysis software to determine the half-maximal growth inhibitory concentration (GI50) for each test compound.

[2] = system: T-Rex 293 cell line SC3 cells lacking increased expression of androgen receptor protein; assay: Cellular growth inhibition, T-Rex 293 SC3 cells lacking increased androgen receptor expression (no doxycycline), CellTiter-Glo; type: cell-based; settings: T-Rex 293 SC3 cells lacking increased androgen receptor expression (not exposed to doxycycline), 72 hours, CellTiter-Glo; read-out: GI50
Procedure: as §1, §2, §3, §4, §5, §6

VCaP cells = assay: Cellular growth inhibition assay for VCaP cells, CellTiter-Glo; type: cell-based, human; settings: VCaP cells, 72 hours, CellTiter-Glo, read-out: GI50
Procedure: VCaP cells were purchased from American Type Cell Culture (ATCC Cat #CRL2876) and then seeded on poly-D-lysine coated, black clear-bottom 384-well plates at 5000/well in 25 μL Dulbecco's Modified Eagle Medium (DMEM) supplemented with 10% w/w Fetal bovine serum (FBS) and 1% w/w Pen-Strep. Pen-Strep is a commercially available mixture of penicillin G and streptomycin, which is used in mammalian cell culture media to prevent bacterial contamination. Dulbecco's Modified Eagle Medium (DMEM) supplemented with 10% w/w fetal bovine serum (FBS) and 1% w/w Pen-Strep is herein referred to as Treatment Medium. Following seeding of cells in the plates, the plates were spun at 300×g for 30 seconds, then equilibrated to room temperature for 30 minutes, and then deposited in a humidified tissue culture incubator maintained at 37° C. with 5% CO2.
as §4, §5, §6

Row | GI50 (VCaP cells; Homo sapiens) | GI50 (VCaP cells) | SMILES | GI50 [1] | GI50 [2]
1 | – | – | CCS(=O)(=O)Nc1ccc(Oc2cccc(OCCOCCOCCOCCOCCOCCOCCOC3CCN(c4ccc(C(=O)N[C@H]5CC[C@H](Oc6ccc(C#N)c(Cl)c6)CC5)nn4)CC3)c2)c(-c2cn(C)c(=O)c3[nH]ccc23)c1 [I-4, N-[4-(3-chloro-4-cyano-phenoxy)cyclohexyl]-6-[4-[2-[2-[2-[2-[2-[2-[2-[3-[4-(ethylsulfonylamino)-2-(6-methyl-7-oxo-1H-pyrrolo[2,3-c]pyridin-4-yl)phenoxy]phenoxy]ethoxy]ethoxy]ethoxy]ethoxy]ethoxy]ethoxy]ethoxy]-1-piperidyl]pyridazine-3-carboxamide] | < 500 nM | 1500 to 3000 nM
2 | 1500 to 3000 nM | – | Cn1cc(-c2cc(NS(=O)(=O)C(F)(F)F)ccc2Oc2cccc(OCCOC3CCN(c4ccc(C(=O)N[C@H]5CC[C@H](Oc6ccc(C#N)c(Cl)c6)CC5)nn4)CC3)c2F)c2cc[nH]c2c1=O [I-24] | 500 to 1500 nM | > 3000 nM
3 | < 500 nM | – | CCS(=O)(=O)Nc1ccc(Oc2ccc(CCC3CCN(c4ccc(C(=O)NC5CCC(Oc6ccc(C#N)c(Cl)c6)CC5)nn4)CC3)c(F)c2)c(-c2cn(C)c(=O)c3ccccc23)c1 (stereo not drawn) [I-242, N-[4-(3-chloro-4-cyano-phenoxy)cyclohexyl]-6-[4-[2-[4-[4-(ethylsulfonylamino)-2-(2-methyl-1-oxo-4-isoquinolyl)phenoxy]-2-fluoro-phenyl]ethyl]-1-piperidyl]pyridazine-3-carboxamide] | < 500 nM | > 3000 nM
4 | – | < 500 nM | CCS(=O)(=O)c1ccc(Oc2cccc(CCCC3CCN(c4ncc(C(=O)N[C@H]5CC[C@H](Oc6ccc(C#N)c(Cl)c6)CC5)cn4)CC3)c2F)c(-c2cn(C)c(=O)c3[nH]ccc23)c1 [I-65] | < 500 nM | > 3000 nM
5 | – | < 500 nM | CCS(=O)(=O)Nc1ccc(Oc2ccc(OCCOC3CCN(c4ccc(C(=O)N[C@H]5CC[C@H](Oc6ccc(C#N)c(Cl)c6)CC5)nn4)CC3)cc2)c(-c2cn(C)c(=O)c3[nH]ccc23)c1 [I-34] | < 500 nM | < 500 nM
6 | < 500 nM | – | CCS(=O)(=O)c1ccc(Oc2ccc(CCC3CCN(c4ccc(C(=O)NC5CCC(Oc6ccc(C#N)c(Cl)c6)CC5)nn4)CC3)cc2F)c(-c2cn(C)c(=O)c3[nH]ccc23)c1 (stereo not drawn) [I-45, N-[4-(3-chloro-4-cyano-phenoxy)cyclohexyl]-6-[4-[2-[4-[4-ethylsulfonyl-2-(6-methyl-7-oxo-1H-pyrrolo[2,3-c]pyridin-4-yl)phenoxy]-3-fluoro-phenyl]ethyl]-1-piperidyl]pyridazine-3-carboxamide] | < 500 nM | < 500 nM
7 | < 500 nM | – | CCS(=O)(=O)c1ccc(Oc2cccc(CCCOC3CCN(c4ccc(C(=O)N[C@H]5CC[C@H](Oc6ccc(C#N)c(Cl)c6)CC5)nn4)CC3)c2F)c(-c2cn(C)c(=O)c3[nH]ccc23)c1 [I-27] | < 500 nM | < 500 nM
8 | < 500 nM | – | Cn1cc(-c2cc(NS(=O)(=O)CC(F)(F)F)ccc2Oc2cccc(OCCOC3CCN(c4ccc(C(=O)N[C@H]5CC[C@H](Oc6ccc(C#N)c(Cl)c6)CC5)nn4)CC3)c2F)c2cc[nH]c2c1=O [I-17] | < 500 nM | < 500 nM
9 | < 500 nM | – | Cn1cc(-c2cc(C(C)(C)O)ccc2Oc2ccc(CN3CC4(CCN(c5ccc(C(=O)N[C@H]6CC[C@H](Oc7ccc(C#N)c(Cl)c7)CC6)nn5)CC4)C3)cc2)c2cc[nH]c2c1=O [I-120] | < 500 nM | < 500 nM
10 | – | < 500 nM | CCS(=O)(=O)c1ccc(Oc2ccc(CCN3CC4(C3)CN(c3ccc(C(=O)N[C@H]5CC[C@H](Oc6ccc(C#N)c(Cl)c6)CC5)nn3)C4)cc2)c(-c2cn(C)c(=O)c3[nH]ccc23)c1 [I-63] | < 500 nM | < 500 nM
11 | < 500 nM | – | CCS(=O)(=O)Nc1ccc(Oc2cccc(OCCOC3CCN(c4cnc(C(=O)N[C@H]5CC[C@H](Oc6ccc(C#N)c(Cl)c6)CC5)cn4)CC3)c2F)c(-c2cn(C)c(=O)c3[nH]ccc23)c1 [I-31] | < 500 nM | < 500 nM
12 | < 500 nM | – | CCS(=O)(=O)c1ccc(Oc2cccc(OCCOC3CCN(c4ccc(C(=O)N[C@H]5CC[C@H](Oc6ccc(C#N)c(Cl)c6)CC5)nn4)CC3)c2F)c(-c2cn(C)c(=O)c3[nH]ccc23)c1 [I-23] | < 500 nM | < 500 nM
13 | < 500 nM | – | CCS(=O)(=O)Nc1ccc(Oc2cccc(OCCOC3CCN(c4ccc(C(=O)N[C@H]5CC[C@H](Oc6ccc(C#N)c(Cl)c6)CC5)nn4)CC3)c2F)c(-c2cn(C)c(=O)c3[nH]ccc23)c1 [I-16] | < 500 nM | < 500 nM
14 | < 500 nM | – | CCS(=O)(=O)Nc1ccc(Oc2cccc(OCCOC3CCN(c4ncc(C(=O)N[C@H]5CC[C@H](Oc6ccc(C#N)c(Cl)c6)CC5)cn4)CC3)c2)c(-c2cn(C)c(=O)c3[nH]ccc23)c1 [I-5, N-[4-(3-chloro-4-cyano-phenoxy)cyclohexyl]-2-[4-[2-[3-[4-(ethylsulfonylamino)-2-(6-methyl-7-oxo-1H-pyrrolo[2,3-c]pyridin-4-yl)phenoxy]phenoxy]ethoxy]-1-piperidyl]pyrimidine-5-carboxamide] | < 500 nM | 500 to 1500 nM
15 | – | > 3000 nM | CCS(=O)(=O)c1ccc(Oc2ccc(CCC3CCN(c4ccc(C(=O)N[C@H]5CC[C@H](Oc6ccc(C#N)c(Cl)c6)CC5)nn4)CC3)cn2)c(-c2cn(C)c(=O)c3[nH]ccc23)c1 [I-220] | < 500 nM | > 3000 nM
16 | < 500 nM | – | CCS(=O)(=O)Cc1ccc(Oc2cccc(OCCOC3CCN(c4ccc(C(=O)N[C@H]5CC[C@H](Oc6ccc(C#N)c(Cl)c6)CC5)nn4)CC3)c2F)c(-c2cn(C)c(=O)c3[nH]ccc23)c1 [I-22] | < 500 nM | < 500 nM
17 | < 500 nM | – | CCS(=O)(=O)Nc1ccc(Oc2cccc(CCC3CCN(c4ccc(C(=O)N[C@H]5CC[C@H](Oc6ccc(C#N)c(Cl)c6)CC5)nn4)CC3)c2)c(-c2cn(C)c(=O)c3[nH]ccc23)c1 [I-39] | < 500 nM | > 3000 nM
18 | < 500 nM | – | Cn1cc(-c2cc(CS(C)(=O)=O)ccc2Oc2ccc(CCC3CCN(c4ccc(C(=O)NC5CCC(Oc6ccc(C#N)c(Cl)c6)CC5)nn4)CC3)cc2)c2cc[nH]c2c1=O (stereo not drawn) [I-237, N-[4-(3-chloro-4-cyano-phenoxy)cyclohexyl]-6-[4-[2-[4-[2-(6-methyl-7-oxo-1H-pyrrolo[2,3-c]pyridin-4-yl)-4-(methylsulfonylmethyl)phenoxy]phenyl]ethyl]-1-piperidyl]pyridazine-3-carboxamide] | < 500 nM | < 500 nM
19 | < 500 nM | – | CCS(=O)(=O)c1ccc(Oc2ccc(CCCC3CCN(c4ccc(C(=O)N[C@H]5CC[C@H](Oc6ccc(C#N)c(Cl)c6)CC5)nn4)CC3)c(F)c2)c(-c2cn(C)c(=O)c3[nH]ccc23)c1 [I-83] | < 500 nM | < 500 nM
20 | – | < 500 nM | Cn1cc(-c2cc(C(C)(C)O)ccc2Oc2ccc(CCCCC3CCN(c4ccc(C(=O)N[C@H]5CC[C@H](Oc6ccc(C#N)c(Cl)c6)CC5)nn4)CC3)cc2)c2cc[nH]c2c1=O [I-125] | – | –
